This experiment deals with HCV 1b-377-neo replicon cells. As to the kind of experiment: HCV replicon assay, HCV 1b-377-neo replicon cells (1b FRET). It counts as cell-based, Hepatitis C virus genotype 1b. As to conditions: HCV 1b-377-neo replicon cells, HCV 1b genotype, read-out: EC50 range against HCV 1b (Table 2, Range). The method in brief:
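FRET-based replicon assay in HCV 1b-377-neo cells, including a comparison line carrying the NS5A Y2065H mutation that confers resistance to a reference compound.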
Background: A replicon is a self-replicating genome or part of one, used to study replication in cells.

Each structure is given as a SMILES string. Like-named read-outs stand apart in the source and are kept apart here.

One may read the EC50 as the concentration needed to bring the measured effect to its halfway point. Turning to `COC(=O)N[C@@H](C(=O)N1CCC[C@H]1c1ncc(-c2ccc(-c3ccc(-c4cnc([C@@H]5CCCN5C(=O)[C@H](NC(=O)OC)c5ccccc5)[nH]4)cc3C)nc2)[nH]1)c1ccccc1` [Example 138], the concentration for a half-maximal effect (EC50) is 1 to 999 pM.
Regarding `CC(=O)N[C@@H](C(=O)N1CCC[C@H]1c1ncc(-c2ccc(-c3ccc(-c4cnc([C@@H]5CCCN5C(=O)[C@H](NC(C)=O)c5ccccc5)[nH]4)cn3)cc2)[nH]1)c1ccccc1` [Example 139, N-((1R)-2-((2S)-2-(5-(6-(4-(2-((2S)-1-((2R)-2-acetamido-2-phenylacetyl)-2-pyrrolidinyl)-1H-imidazol-5-yl)phenyl)-3-pyridinyl)-1H-imidazol-2-yl)-1-pyrrolidinyl)-2-oxo-1-phenylethyl)acetamide], the EC50 (Hepatitis C virus) is 1 to 999 pM.
Same read-out and setting: then `COC(=O)N[C@@H](C(=O)N1CCC[C@H]1c1ncc(-c2ccc(-c3ccc(-c4cnc([C@@H]5CCCN5C(=O)[C@@H](c5ccccc5)N(C)C)[nH]4)cn3)cc2)[nH]1)c1ccccc1` [Example 140, methyl ((1R)-2-((2S)-2-(5-(4-(5-(2-((2S)-1-((2R)-2-(dimethylamino)-2-phenylacetyl)-2-pyrrolidinyl)-1H-imidazol-5-yl)-2-pyridinyl)phenyl)-1H-imidazol-2-yl)-1-pyrrolidinyl)-2-oxo-1-phenylethyl)carbamate], with 1 to 999 pM; and `COC(=O)N[C@@H](C(=O)N1CCC[C@H]1c1ncc(-c2ccc(-c3ccc(-c4cnc([C@@H]5CCCN5C(=O)[C@H]5CCCO5)[nH]4)cn3)cc2)[nH]1)c1ccccc1` [Example 141, methyl ((1R)-2-oxo-1-phenyl-2-((2S)-2-(5-(4-(5-(2-((2S)-1((2R)-tetrahydro-2-furanylcarbonyl)-2-pyrrolidinyl)-1H-imidazol-5-yl)-2-pyridinyl)phenyl)-1H-imidazol-2-yl)-1-pyrrolidinyl)ethyl)carbamate], with 1 to 999 pM.
The same measure, in the same setting: then `COC(=O)N[C@@H](C(=O)N1CCC[C@H]1c1ncc(-c2ccc(-c3ccc(-c4cnc([C@@H]5CCCN5C(=O)C5CCN(C)CC5)[nH]4)cn3)cc2)[nH]1)c1ccccc1` [Example 142, methyl ((1R)-2-((2S)-2-(5-(4-(5-(2-((2S)-1-((1-methyl-4-piperidinyl)carbonyl)-2-pyrrolidinyl)-1H-imidazol-5-yl)-2-pyridinyl)phenyl)-1H-imidazol-2-yl)-1-pyrrolidinyl)-2-oxo-1-phenylethyl)carbamate], with 1000 to 99000 pM.
Same read-out and setting: then `COC(=O)N[C@@H](C(=O)N1CCC[C@H]1c1ncc(-c2ccc(-c3ccc(-c4cnc([C@@H]5CCCN5C(=O)Cc5cccnc5)[nH]4)cn3)cc2)[nH]1)c1ccccc1` [Example 143, methyl ((1R)-2-oxo-1-phenyl-2-((2S)-2-(5-(4-(5-(2-((2S)-1-(3-pyridinylacetyl)-2-pyrrolidinyl)-1H-imidazol-5-yl)-2-pyridinyl)phenyl)-1H-imidazol-2-yl)-1-pyrrolidinyl)ethyl)carbamate], with 1 to 999 pM.
`COC(=O)N[C@@H](C(=O)N1CCC[C@H]1c1ncc(-c2ccc(-c3ccc(-c4cnc([C@@H]5CCCN5C(=O)N5CCOCC5)[nH]4)cn3)cc2)[nH]1)c1ccccc1` [Example 144, methyl ((1R)-2-((2S)-2-(5-(4-(5-(2-((2S)-1-(4-morpholinylcarbonyl)-2-pyrrolidinyl)-1H-imidazol-5-yl)-2-pyridinyl)phenyl)-1H-imidazol-2-yl)-1-pyrrolidinyl)-2-oxo-1-phenylethyl)carbamate]: the EC50 (Hepatitis C virus) lay in the range of 1 to 999 pM.
With `COC(=O)N[C@@H](C(=O)N1CCC[C@H]1c1ncc(-c2ccc(-c3ccc(-c4cnc([C@@H]5CCCN5C(=O)[C@H](NC(=O)OC)c5ccccc5)[nH]4)cn3)nc2)[nH]1)c1ccccc1` [Example 145, dimethyl (2,2′-bipyridine-5,5′-diylbis(1H-imidazole-5,2-diyl(2S)-2,1-pyrrolidinediyl((1R)-2-oxo-1-phenyl-2,1-ethanediyl)))biscarbamate], the EC50 (Hepatitis C virus) lay in the range of 1 to 999 pM.

For the origin of these results see US8574563B2 (Bristol-Myers Squibb Company, priority 2006, dated 2013).
